The values below come from US10544106B2, “Certain chemical entities, compositions, and methods” (NeuPharma, Inc., priority 2016, dated 2020).

The target in this test is BTK (Homo sapiens (Human), UniProt Q06187). In words: Z'-LYTE kinase inhibition assay against BTK. Format: biochemical. As to conditions: for inhibition at 0.1 µM: compound at 100 nM, ATP concentration at Km; for pIC50: series of concentrations, GraphPad Prism 5. On the procedure:
Inhibitory activities of compounds against BTK, EGFR T790M, EGFR L858R, and EGFR L858R/T790M were measured using Z′-LYTE® Method from Life Technologies as briefly described in the following.
Test Compounds are screened in 1% DMSO (final) in the well. For 10 point titrations, 3-fold serial dilutions are conducted from the starting concentration. All ATP Solutions are diluted to a 4× working concentration in Kinase Buffer (50 mM HEPES pH 7.5, 0.01% BRIJ-35, 10 mM MgCl2, 1 mM EGTA). Peptide/Kinase Mixtures are diluted to a 2× working concentration in the appropriate Kinase Buffers as described below. • (i) Peptide/Kinase Mixtures for measurement of EGFR (ErbB1) L858R: • The 2×EGFR (ErbB1) L858R/Tyr 04 mixture is prepared in 50 mM HEPES pH 7.5, 0.01% BRIJ-35, 10 mM MgCl2, 4 mM MnCl2. 1 mM EGTA, 2 mM DTT. The final 10 μL Kinase Reaction consists of 0.2-1.68 ng EGFR (ErbB1) L858R and 2 μM Tyr 04 in 50 mM HEPES pH 7.5, 0.01% BRIJ-35, 10 mM MgCl2, 2 mM MnCl2, 1 mM EGTA, 1 mM DTT. After the 1 hour Kinase Reaction incubation, 5 μL of a 1:64 dilution of Development Reagent B is added. • (ii) Peptide/Kinase Mixtures for measurement of EGFR (ErbB1) T790M: The 2×EGFR (ErbB1) T790M/Tyr 04 mixture is prepared in 50 mM HEPES pH 6.5, 0.01% BRIJ-35, 10 mM MgCl2, 1 mM EGTA, 0.02% NaN3. The final 10 μL Kinase Reaction consists of 3.9-30.2 ng EGFR (ErbB1) T790M and 2 μM Tyr 04 in 50 mM HEPES pH 7.0, 0.01% BRIJ-35, 10 mM MgCl2, 1 mM EGTA, 0.01% NaN3. After the 1 hour Kinase Reaction incubation, 5 μL of a 1:64 dilution of Development Reagent B is added. • (iii) Peptide/Kinase Mixtures for measurement of EGFR (ErbB1) L858R/T790M: The 2×EGFR (ErbB1) T790M L858R/Tyr 04 mixture is prepared in 50 mM HEPES pH 6.5, 0.01% BRIJ-35, 10 mM MgCl2, 1 mM EGTA, 0.02% NaN3. The final 10 μL Kinase Reaction consists of 0.38-4.22 ng EGFR (ErbB1) T790M L858R and 2 μM Tyr 04 in 50 mM HEPES pH 7.0, 0.01% BRIJ-35, 10 mM MgCl2, 1 mM EGTA, 0.01% NaN3. After the 1 hour Kinase Reaction incubation, 5 μL of a 1:64 dilution of Development Reagent B is added. • (iv) Peptide/Kinase Mixtures for measurement of BTK: The 2×BTK/Tyr 01 mixture is prepared in 50 mM HEPES pH 7.5, 0.010/BRIJ-35, 10 mM MgCl2, 1 mM EGTA. The final 10 μL Kinase Reaction consists of 1.04-10.4 ng BTK and 2 μM Tyr 01 in 50 mM HEPES pH 7.5, 0.01% BRIJ-35, 10 mM MgCl2, 1 mM EGTA. After the 1 hour Kinase Reaction incubation, 5 μL of a 1:256 dilution of Development Reagent B is added.
Reaction starts by 30-second shaking of mixture consisting of 2.5 μL 4× test compound, 5 μL 2× kinase reaction mixture and 2.5 μL 4×ATP Solution on Bar-coded Corning, low volume NBS, black 384-well plate (Corning Cat. #3676). Then the mixture is incubated for 60-minute at room temperature for the kinase reaction, followed by addition of 5 μL of a 1:1024 dilution of development reagent A and 30-second plate shake. The mixture is then incubated for another 60-minute at room temperature for development reaction. Finally fluorescence is read by plate reader.
The Z′-LYTE assay was carried out with ATP concentration at Km. The scale utilized in Tables 2-6 is as follows: ++ more than 50% inhibition and + less than 50% inhibition.
To determine IC50 of a compound against a kinase, a series of concentrations of the compound were tested for the inhibition. IC50 was calculated by plotting the concentration of compound vs the percentage of inhibition in treated wells using GraphPad Prism 5. […] The scale utilized in Table 7 is as follows: ++ less than 100 nM and + greater than 100 nM.

Molecules are shown by their SMILES. pIC50: −log10 of the molar value. A value given as a limit tells only on which side of the number the result lay.

BTK, sequence (Q06187 whole entry): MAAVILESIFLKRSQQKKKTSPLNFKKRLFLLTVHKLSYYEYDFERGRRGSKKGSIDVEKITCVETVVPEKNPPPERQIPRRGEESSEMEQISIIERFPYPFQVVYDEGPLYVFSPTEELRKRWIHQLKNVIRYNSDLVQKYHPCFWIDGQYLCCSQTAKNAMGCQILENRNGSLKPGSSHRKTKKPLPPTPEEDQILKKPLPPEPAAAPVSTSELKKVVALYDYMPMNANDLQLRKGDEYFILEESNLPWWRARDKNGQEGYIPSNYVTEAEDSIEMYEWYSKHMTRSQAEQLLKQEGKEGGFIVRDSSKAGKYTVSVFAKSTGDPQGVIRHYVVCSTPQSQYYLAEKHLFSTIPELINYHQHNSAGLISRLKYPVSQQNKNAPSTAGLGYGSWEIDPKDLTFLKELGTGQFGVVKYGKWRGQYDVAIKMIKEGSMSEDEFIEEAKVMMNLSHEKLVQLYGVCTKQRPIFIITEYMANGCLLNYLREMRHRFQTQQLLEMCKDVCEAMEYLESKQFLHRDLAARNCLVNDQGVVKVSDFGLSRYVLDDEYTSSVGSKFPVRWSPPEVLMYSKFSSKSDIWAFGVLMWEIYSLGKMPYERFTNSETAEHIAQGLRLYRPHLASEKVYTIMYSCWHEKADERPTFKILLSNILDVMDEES

As a reminder, the inhibition is the drop in the measured response relative to a control, in per cent. Take `C=CC(=O)N1CCC(c2cc(-c3ccc(Oc4ccccn4)c(OC)c3)n3cnccc23)C1` (stereo not drawn) [C167, 1-(3-(7-(3-methoxy-4-(pyridin-2-yloxy)phenyl)pyrrolo[1,2-c]pyrimidin-5-yl)pyrrolidin-1-yl)prop-2-en-1-one]: the inhibition at 0.1 µM was < 50%. By pIC50 is commonly meant −log10 of the IC50, conventionally taken in molar units. Read a high pIC50 as a small IC50. In the case of `C=CC(=O)Nc1cccc(-c2cc(-c3cccnc3)cc3cncnc23)c1` [C007, N-(3-(6-(pyridin-3-yl)quinazolin-8-yl)phenyl)acrylamide], the inhibition at 0.1 µM is > 50% and the negative logarithm of the IC50 (pIC50) is > 7.00.

With `C=CC(=O)Nc1cccc(-c2nc(-c3ccc(Oc4ncccc4C(F)(F)F)cc3)n3c(N)nccc23)c1` [C220, N-(3-(5-amino-3-(4-((3-(trifluoromethyl)pyridin-2-yl)oxy)phenyl)imidazo[1,5-c]pyrimidin-1-yl)phenyl)acrylamide], the inhibition at 0.1 µM is > 50%. For `C=CC(=O)Nc1cccc(-c2cc(-c3ccc(Oc4ccccc4)nc3)cc3cncnc23)c1` [C061, N-(3-(6-(6-phenoxypyridin-3-yl)quinazolin-8-yl)phenyl)acrylamide], the inhibition at 0.1 µM is > 50% and the negative logarithm of the IC50 (pIC50) was > 7.00. Consider `C=CC(=O)Nc1cccc(-c2cc(-c3ccc(Oc4ccccn4)c(OC)c3)cc3cncnc23)c1` [C119, N-(3-(6-(3-methoxy-4-(pyridin-2-yloxy)phenyl)quinazolin-8-yl)phenyl)acrylamide], for which the inhibition at 0.1 µM was > 50%. As to `C=CC(=O)Nc1cccc(-c2cc(-c3ccccc3)cc3c(N)ncnc23)c1` [C016, N-(3-(4-amino-6-phenylquinazolin-8-yl)phenyl)acrylamide], the inhibition at 0.1 µM was < 50%. As to `C=CC(=O)Nc1cccc(-c2cc(-c3ccc(Oc4ccccc4)cc3)n3cnccc23)c1` [C057, N-(3-(7-(4-phenoxyphenyl)pyrrolo[1,2-c]pyrimidin-5-yl)phenyl)acrylamide], the inhibition at 0.1 µM was < 50%. Same read-out and setting: in the case of `C=CC(=O)N1CCC(c2cc(-c3ccc(Oc4cc(C(F)(F)F)ccn4)cc3F)cc3cncnc23)C1` (stereo not drawn) [C090, 1-(3-(6-(2-Fluoro-4-((4-(trifluoromethyl)pyridin-2-yl)oxy)phenyl)quinazolin-8-yl)pyrrolidin-1-yl)prop-2-en-1-one] it was < 50%. Consider `C=CC(=O)N1CCC(c2cc(-c3ccc(Oc4cc(C(F)(F)F)ccn4)cc3)c(N)c3cncnc23)C1` (stereo not drawn) [C193, 1-(3-(5-amino-6-(4-((4-(trifluoromethyl)pyridin-2-yl)oxy)phenyl)quinazolin-8-yl)pyrrolidin-1-yl)prop-2-en-1-one], for which the inhibition at 0.1 µM was < 50% and the pIC50 is < 7.00. For `C=CC(=O)Nc1cccc(-c2cc(-c3ccc(C)nc3)cc3cncnc23)c1` [C010, N-(3-(6-(6-methylpyridin-3-yl)quinazolin-8-yl)phenyl)acrylamide], the inhibition at 0.1 µM was > 50%. Regarding `C=CC(=O)Nc1cccc(-c2cc(-c3ccc(C(=O)Nc4cc(C5CC5)ccn4)c(OC)c3)cc3cncnc23)c1` [C140, 4-(8-(3-acrylamidophenyl)quinazolin-6-yl)-N-(4-cyclopropylpyridin-2-yl)-2-methoxybenzamide], the inhibition at 0.1 µM was < 50%. Regarding `CC#CC(=O)N1CCC(c2nc(-c3ccc(Oc4cc(C(F)(F)F)ccn4)c(F)c3)n3c(N)nccc23)C1` (stereo not drawn) [C207, 1-(3-(5-amino-3-(3-fluoro-4-((4-(trifluoro-methyl)pyridin-2-yl)oxy)phenyl)imidazo[1,5-c]pyrimidin-1-yl)pyrrolidin-1-yl)but-2-yn-1-one], the inhibition at 0.1 µM was > 50%. In the case of `C=CC(=O)Nc1cccc(-c2cc(-c3ccc(Oc4ccccn4)c(F)c3)cc3cnc(N)nc23)c1` [C158, N-(3-(2-amino-6-(3-fluoro-4-(pyridin-2-yloxy)phenyl)quinazolin-8-yl)phenyl)acrylamide], the inhibition at 0.1 µM is > 50% and the negative logarithm of the IC50 (pIC50) was > 7.00.

With `C=CC(=O)N1CCC(c2cc(-c3ccc(C(=O)Nc4ccccn4)cc3)cc3cncnc23)C1` (stereo not drawn) [C079, 4-(8-(1-acryloylpyrrolidin-3-yl)quinazolin-6-yl)-N-(pyridin-2-yl)benzamide], the inhibition at 0.1 µM was < 50%. Consider `C=CC(=O)N1CCC(c2cc(-c3ccc(C(=O)Nc4cc(C(N)=O)ccn4)cc3)cc3cncnc23)C1` (stereo not drawn) [C128, 2-(4-(8-(1-acryloylpyrrolidin-3-yl)quinazolin-6-yl)benzamido)isonicotinamide], for which the inhibition at 0.1 µM was < 50%. Turning to `C=CC(=O)Nc1cccc(-c2cc(-c3ccc(C(=O)Nc4ncccc4F)cc3)c(N)c3cncnc23)c1` [C211, 4-(8-(3-acrylamidophenyl)-5-aminoquinazolin-6-yl)-N-(3-fluoropyridin-2-yl)benzamide], the inhibition at 0.1 µM was < 50%. As to `C=CC(=O)N1CCC(c2cc(-c3ccc(C(=O)Nc4cc(C(F)(F)F)ccn4)c(F)c3)n3cnccc23)C1` (stereo not drawn) [C152, 4-(5-(1-acryloylpyrrolidin-3-yl)pyrrolo[1,2-c]pyrimidin-7-yl)-2-fluoro-N-(4-(trifluoro-methyl)pyridin-2-yl)benzamide], the inhibition at 0.1 µM was < 50%. Turning to `C=CC(=O)N1CCC(c2cc(-c3ccccc3F)cc3cnc(N)nc23)C1` (stereo not drawn) [C085, 1-(3-(2-amino-6-(2-fluorophenyl)quinazolin-8-yl)pyrrolidin-1-yl)prop-2-en-1-one], the inhibition at 0.1 µM was < 50%.

As for `C=CC(=O)Nc1cccc(-c2cc(-c3ccc(Oc4ccccn4)cc3OC)cc3cnc(N)nc23)c1` [C166, N-(3-(2-amino-6-(2-methoxy-4-(pyridin-2-yloxy)phenyl)quinazolin-8-yl)phenyl)acrylamide], the inhibition at 0.1 µM is > 50% and the pIC50 was > 7.00. Regarding `C=CC(=O)Nc1cccc(-c2cc(-c3ccc(Oc4cc(C(F)(F)F)ccn4)cc3)cc3cnc(N)nc23)c1` [C098, N-(3-(2-amino-6-(4-((4-(trifluoromethyl)pyridin-2-yl)oxy)phenyl)quinazolin-8-yl)phenyl)acrylamide], the inhibition at 0.1 µM is < 50%.

With `C=CC(=O)Nc1cccc(-c2cc(-c3cncc(C(F)(F)F)c3)cc3cncnc23)c1` [C055, N-(3-(6-(5-(trifluoromethyl)pyridin-3-yl)quinazolin-8-yl)phenyl)acrylamide], the inhibition at 0.1 µM was > 50%. For `C=CC(=O)N1CCC(c2cc(-c3ccc(Oc4ccccc4)cc3)cc3cnc(N)nc23)C1` (stereo not drawn) [C078, 1-(3-(2-amino-6-(4-phenoxyphenyl)quinazolin-8-yl)pyrrolidin-1-yl)prop-2-en-1-one], the inhibition at 0.1 µM was > 50% and the pIC50 was > 7.00.

Turning to `CC#CC(=O)N1CCC(c2nc(-c3ccc(C(=O)Nc4cc(C5CC5)ccn4)cc3)n3c(N)nccc23)C1` (stereo not drawn) [C239, 4-(5-amino-1-(1-(but-2-ynoyl)pyrrolidin-3-yl)imidazo[1,5-c]pyrimidin-3-yl)-N-(4-cyclopropylpyridin-2-yl)benzamide], the negative logarithm of the IC50 (pIC50) is > 7.00. Turning to `C=CC(=O)Nc1cccc(-n2c(-c3ccccc3)nc3cnc(N)nc32)c1` [C024, N-(3-(2-amino-8-phenyl-9H-purin-9-yl)phenyl)acrylamide], the inhibition at 0.1 µM was < 50%.
